Drawing on US10350206B2, “Benzyl substituted indazoles as BUB1 inhibitors” (Bayer Pharma Aktiengesellschaft, priority 2014, dated 2019), this text covers IC50 for 9 compounds.

Experiment [1] deals with Bub1 kinase (pre-induced phospho-histone 2A). As to the kind of experiment: H2A Abrogation-Assay (cell-based mechanistic assay, pre-treatment with Nocodazole). Conditions: Nocodazole 1 μg/ml 16 h, then test compound 1 h; read-out: Biological Assay 4.2: H2A Abrogation IC50. As to the method:
Biological Assay 4.2: Abrogation-Assay
Cell-Based Mechanistic Assay: Changes of Phosphorylation Status of Pre-Induced Phospho-Histone 2A by Inhibition of Kinase Activity of Bub1
This assay measures the inhibition of histone 2A phosphorylation, which was induced by pre-treatment of the cells with Nocodazole, by a Bub1 kinase inhibitor. 25000 cells (cells were ordered from ATCC) were seeded in 96 well plate for 5 h at 37° C. Cells were treated with Nocodazole (1 μg/ml). After 16h varying concentrations (between 3 nM and 10 μM) of test compounds were added and the cells were incubated for another 1h. Cells were fixed (20 min, Fixing solution R&D), washed three times with PBS and blocked with Odyssey blocking buffer before incubating with the primary antibody against phosphorylated H2A (5 μg/ml ABIN482721) overnight at 2-8° C. After washing, secondary IRDye-labeled antibody mix with cell stains was added for 1h and washed again with PBS. Plates were scanned with LiCor Odyssey Infrared Imager CLx at 800 nm for P-H2A and at 700 nm for cell stains Draq5/Sapphire. The quotient of 800 nm and 700 nm for Nocodazole only treated cells was set as 100% and the quotient of 800 nm and 700 nm of untreated cells was set as 0%. […] The IC50 values were determined by means of a 4 parameter fit.
(§1) Histone H2A is an immediate intracellular substrate of Bub1 kinase. Determination of the phosphorylation status of Histone H2A provides a direct measure of the intracellular activity of Bub1 kinase.

In experiment [2] the target is T1, catalytic domain of human Bub1 (amino acids 704-1085) (Homo sapiens, UniProt O43683).
T1 construct: catalytic domain of human Bub1 (amino acids 704-1085); His6 (N); made in house; host or cells: Hi5 insect cells
As to the kind of experiment: Bub1 kinase assay (TR-FRET). It is filed as biochemical. To be noted: 10 μM ATP, 60 min reaction, pH 7.5; read-out: Biological Assay 1: Bub1 kinase assay median IC50. As to the method:
To this end, 100-fold concentrated compound solutions (in DMSO) were previously prepared by serial dilution (1:3.4) of 2 mM stocks in a clear low volume 384-well source microtiter plate (Greiner Bio-One, Frickenhausen, Germany), from which 50 nL of compounds were transferred into a black low volume test microtiter plate from the same supplier. […] The resulting mixture (5 μL final volume) was incubated at 22° during 60 min., and the reaction was stopped by the addition of 5 μL of an aqueous EDTA-solution (50 mM EDTA, in 100 mM HEPES pH 7.5 and 0.2% (w/v) bovine serum albumin) which also contained the TR-FRET detection reagents (0.2 μM streptavidin-XL665 [Cisbio Bioassays, Codolet, France] and 1 nM anti-phosho-Serine antibody [Merck Millipore, cat. #35-001] and 0.4 nM LANCE EU-W1024 labeled anti-mouse IgG antibody [Perkin-Elmer, product no. AD0077, alternatively a Terbium-cryptate-labeled anti-mouse IgG antibody from Cisbio Bioassays can be used]). The stopped reaction mixture was further incubated 1 h at 22° C. in order to allow the formation of complexes between peptides and detection reagents. Subsequently, the amount of product was evaluated by measurement of the resonance energy transfer from the Eu-chelate-antibody complex recognizing the Phosphoserine residue to the streptavidin-XL665 bound to the biotin moiety of the peptide. […] IC50 values were calculated by fitting the normalized inhibition data to a 4-parameter logistic equation (Minimum, Maximum, IC50, Hill; Y=Max+(Min−Max)/(1+(X/IC50)Hill)).

Experiment [3] relates to Bub1 kinase (histone 2A phosphorylation). As to the kind of experiment: H2A Formation-Assay (cell-based mechanistic assay, co-treatment with Nocodazole). To be noted: 16 h, Nocodazole 1 μg/ml together with test compound for 16 h; read-out: Biological Assay 4.1: H2A Formation IC50. As to the method:
Biological Assay 4.1: Formation-Assay
Cell-Based Mechanistic Assay: Changes of Phosphorylation Status of Histone 2A by Inhibition of Kinase Activity of Bub1
This assay determines the suppression of histone 2A phosphorylation by a Bub1 kinase inhibitor during co-treatment with Nocodazole. 25000 cells (cells were ordered from ATCC) were seeded in 96 well plate for 5 h at 37° C. Cells were treated with Nocodazole (1 μg/ml) and varying concentrations (between 3 nM and 10 μM) of test compounds for 16h. Cells were fixed (20 min, Fixing solution R&D), washed three times with PBS and blocked with Odyssey blocking buffer before incubating with the primary antibody against phosphorylated H2A (5 μg/ml ABIN482721) overnight at […]. After washing, secondary IRDye-labeled antibody mix with cell stains was added for 1h and washed again with PBS. Plates were scanned with LiCor Odyssey Infrared Imager CLx at 800 nm for P-H2A and at 700 nm for cell stains Draq5/Sapphire. The quotient of 800 nm and 700 nm for Nocodazole only treated cells was set as 100% and the quotient of 800 nm and 700 nm of untreated cells was set as 0%. […] The IC50 values were determined by means of a 4 parameter fit.
as §1

Experiment [4] concerns HeLa human cervical tumor cells. The experiment in a line: Proliferation Assay (HeLa+Paclitaxel). Type of experiment: cell-based. To be noted: 3 nM paclitaxel, test substance 92 hours; read-out: Biological Assay 3: Proliferation Assay (HeLa + Paclitaxel) IC50. As to the method: Proliferation Assay (HeLa+Paclitaxel):
(§2) Cultivated HeLa human cervical tumor cells (DSMZ ACC-57) were plated at a density of 3000 cells/well in a 96-well multititer plate in 200 μL of growth medium supplemented 10% fetal calf serum. After 24 hours, the cells of one plate (zero-point plate) were stained with crystal violet (see below). The medium of the other plates was supplemented with 3 nM of paclitaxel (Sigma-Aldrich) and the cells were incubated at 37° C. After 4 hours the test substances were added in various concentrations (0 μM, as well as in the range of 0.001-10 μM; the final concentration of the solvent dimethyl sulfoxide was adjusted to 0.1%) using a Hewlett-Packard HP D300 Digital Dispenser. The cells were incubated for another 92 hours at 37° C. in the presence of test substances. […] After three washing cycles of the fixed cells with water, the plates were dried at room temperature. The cells were stained by adding 100 μL/measuring point of a 0.1% crystal violet solution (pH 3.0). After three washing cycles of the stained cells with water, the plates were dried at room temperature. The dye was dissolved by adding 100 μL/measuring point of a 10% acetic acid solution. […] The change of cell number, in percent, was calculated by normalization of the measured values to the absorption values of the zero-point plate (=0%) and the 5 absorption of the untreated (0 μm) cells (=100%). The IC50 values were determined by means of a 4 parameter fit.

For experiment [5] the test system is unchanged. The experiment in a line: Proliferation assay (HeLa cell line). Type of experiment: cell-based. To be noted: 96 h, 4 days incubation, crystal violet, read-out: Biological Assay 2: Proliferation assay (HeLa cell line) median IC50. As to the method: as §2, with “Human tumour cells were originally obtained from the American Type Culture Collection (ATCC), the Deutsche Sammlung von Mikroorganismen und Zellkulturen (DSMZ, German Collection of Microorganisms and Cell Cultures), or Epo GmbH Berlin. Cultivated” for “Cultivated”, “below), while the” for “below). The”, “with” for “with 3 nM of paclitaxel (Sigma-Aldrich) and the cells were incubated at 37° C. After 4 hours”, “substances” for “substances were added”, “4 days” for “another 92 hours at 37° C.”, “the” for “the 5”

T1 sequence (O43683 704-1085): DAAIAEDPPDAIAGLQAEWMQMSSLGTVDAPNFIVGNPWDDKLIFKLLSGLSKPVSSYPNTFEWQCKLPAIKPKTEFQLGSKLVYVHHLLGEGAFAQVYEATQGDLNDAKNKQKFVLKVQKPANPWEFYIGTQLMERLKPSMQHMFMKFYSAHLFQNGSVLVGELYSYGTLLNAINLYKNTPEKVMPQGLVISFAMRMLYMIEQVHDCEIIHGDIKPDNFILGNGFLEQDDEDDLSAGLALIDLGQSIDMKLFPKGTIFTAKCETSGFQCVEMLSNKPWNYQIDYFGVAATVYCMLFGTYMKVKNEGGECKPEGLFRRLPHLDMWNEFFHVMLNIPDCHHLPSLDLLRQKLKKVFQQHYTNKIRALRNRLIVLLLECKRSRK

As to `COc1cnc(-c2nn(Cc3c(F)cc(OCCCO)cc3F)c3ccccc23)nc1Nc1cc(C)ncc1C` [Example 2-3-1, 3-{4-[(3-{4-[(2,5-dimethylpyridin-4-yl)amino]-5-methoxypyrimidin-2-yl}-1 H-indazol-1-yl)methyl]-3,5-difluorophenoxy}propan-1-ol], the IC50 in experiment [1] was 0.72 nM; in experiment [2] it was 15 nM; in experiment [3], 38 nM; in experiment [4], 72 nM; in experiment [5], greater than 10000 nM.
For `COc1cnc(-c2nn(Cc3c(F)cc(OCCCO)cc3F)c3ccccc23)nc1Nc1ccnc(C)n1` [Example 2-3-3, 3-{3,5-difluoro-4-[(3-{5-methoxy-4-[(2-methylpyrimidin-4-yl)amino]pyrimidin-2-yl}-1H-indazol-1-yl)methyl]phenoxy}propan-1-ol], in that order: 310 nM, 55 nM, 210 nM, 200 nM and greater than 10000 nM.
On the same counts, the results for `COc1cnc(-c2nn(Cc3c(F)cc(OC[C@H](C)CO)cc3F)c3ccccc23)nc1Nc1ccnc(C)n1` [Example 2-3-4, (2R)-3-{3,5-difluoro-4-[(3-{5-methoxy-4-[(2-methylpyrimidin-4-yl)amino]pyrimidin-2-yl}-1H-indazol-1-yl)methyl]phenoxy}-2-methylpropan-1-ol] are 1.9 nM, 43 nM, 2.4 nM, 150 nM and greater than 10000 nM.
For `COc1cnc(-c2nn(Cc3c(F)cc(OC[C@H](C)CO)cc3F)c3ccccc23)nc1Nc1cc(C)ncc1C` [Example 2-3-5, (2R)-3-{4-[(3-{4-[(2,5-dimethylpyridin-4-yl)amino]-5-methoxypyrimidin-2-yl}-1H-indazol-1-yl)methyl]-3,5-difluorophenoxy}-2-methylpropan-1-ol], in that order: greater than 1000 nM, 58 nM, 2 nM, 69 nM and 3300 nM.
`COc1cnc(-c2nn(Cc3c(F)cc(OC[C@H](C)CO)cc3F)c3ccccc23)nc1Nc1ccnc(NC(C)=O)c1` [Example 2-3-6, N-[4-({2-[1-(2,6-difluoro-4-{[(2R)-3-hydroxy-2-methylpropyl]oxy}benzyl)-1H-indazol-3-yl]-5-methoxypyrimidin-4-yl}amino)pyridin-2-yl]acetamide]: the IC50 in experiment [1] is 0.27 nM; in experiment [2], 19 nM; in experiment [3], 53 nM; in experiment [4] it was 120 nM; in experiment [5], greater than 10000 nM.
Consider `COc1cnccc1Nc1nc(-c2nn(Cc3c(F)cc(OC[C@H](C)CO)cc3F)c3ccccc23)ncc1OC` [Example 2-3-7, (2R)-3-{3,5-difluoro-4-[(3-{5-methoxy-4-[(3-methoxypyridin-4-yl)amino]pyrimidin-2-yl}-1H-indazol-1-yl)methyl]phenoxy}-2-methylpropan-1-ol], for which the IC50 was 0.31 nM in experiment [1]; 28 nM in experiment [2]; 63 nM in experiment [3]; 110 nM in experiment [4]; 6900 nM in experiment [5].
As for `COc1cnc(-c2nn(Cc3c(F)cc(OCCCO)cc3F)c3ccccc23)nc1Nc1ccnc(C)c1` [Example 2-3-8, 3-{3,5-difluoro-4-[(3-{5-methoxy-4-[(2-methylpyridin-4-yl)amino]pyrimidin-2-yl}-1H-indazol-1-yl)methyl]phenoxy}propan-1-ol], the IC50 is greater than 1000 nM in experiment [1]; 17 nM in experiment [2]; greater than 1000 nM in experiment [3]; 160 nM in experiment [4]; 2600 nM in experiment [5].
Regarding `COc1cnc(-c2nn(Cc3c(F)cc(OCCO)cc3F)c3ccccc23)nc1Nc1ccncc1` [Example 6-1-1, 2-[3,5-difluoro-4-({3-[5-methoxy-4-(pyridin-4-ylamino)pyrimidin-2-yl]-1H-indazol-1-yl}methyl)phenoxy]ethanol, reference compound], the IC50 in experiment [1] turned out to be 5400 nM; in experiment [2], 6.2 nM; in experiment [3], 200 nM; in experiment [4] it was 430 nM; in experiment [5] it was 3200 nM.
For `CCOc1cc(F)c(Cn2nc(-c3ncc(OC)c(Nc4ccncc4)n3)c3ccccc32)c(F)c1` [Example 6-4-1, 2-[1-(4-ethoxy-2,6-difluorobenzyl)-1 H-indazol-3-yl]-5-methoxy-N-(pyridin-4-yl)pyrimidin-4-amine, reference compound], in that order: 920 nM, 52 nM, 74 nM, 660 nM and 2400 nM.
